5 compounds from patent US9394289B2, “Inhibitors of c-fms kinase” (Janssen Pharmaceutica NV, priority 2006, dated 2016) can be followed below.

One assay deals with c-fms (Homo sapiens (Human), UniProt P07333). As to the kind of experiment: Autophosphorylation fluorescence polarization competition immunoassay for c-fms inhibition. Format: biochemical. The note with it: averages of three independent measurements; table head says 1 nM c-fms, method says 10 nM c-fms, 1 mM ATP; read-out: 1 nM c-fms; peptide Pi assay IC-50. The protocol: Fluorescence Polarization Competition Immunoassay
c-fms, sequence (P07333 20-972): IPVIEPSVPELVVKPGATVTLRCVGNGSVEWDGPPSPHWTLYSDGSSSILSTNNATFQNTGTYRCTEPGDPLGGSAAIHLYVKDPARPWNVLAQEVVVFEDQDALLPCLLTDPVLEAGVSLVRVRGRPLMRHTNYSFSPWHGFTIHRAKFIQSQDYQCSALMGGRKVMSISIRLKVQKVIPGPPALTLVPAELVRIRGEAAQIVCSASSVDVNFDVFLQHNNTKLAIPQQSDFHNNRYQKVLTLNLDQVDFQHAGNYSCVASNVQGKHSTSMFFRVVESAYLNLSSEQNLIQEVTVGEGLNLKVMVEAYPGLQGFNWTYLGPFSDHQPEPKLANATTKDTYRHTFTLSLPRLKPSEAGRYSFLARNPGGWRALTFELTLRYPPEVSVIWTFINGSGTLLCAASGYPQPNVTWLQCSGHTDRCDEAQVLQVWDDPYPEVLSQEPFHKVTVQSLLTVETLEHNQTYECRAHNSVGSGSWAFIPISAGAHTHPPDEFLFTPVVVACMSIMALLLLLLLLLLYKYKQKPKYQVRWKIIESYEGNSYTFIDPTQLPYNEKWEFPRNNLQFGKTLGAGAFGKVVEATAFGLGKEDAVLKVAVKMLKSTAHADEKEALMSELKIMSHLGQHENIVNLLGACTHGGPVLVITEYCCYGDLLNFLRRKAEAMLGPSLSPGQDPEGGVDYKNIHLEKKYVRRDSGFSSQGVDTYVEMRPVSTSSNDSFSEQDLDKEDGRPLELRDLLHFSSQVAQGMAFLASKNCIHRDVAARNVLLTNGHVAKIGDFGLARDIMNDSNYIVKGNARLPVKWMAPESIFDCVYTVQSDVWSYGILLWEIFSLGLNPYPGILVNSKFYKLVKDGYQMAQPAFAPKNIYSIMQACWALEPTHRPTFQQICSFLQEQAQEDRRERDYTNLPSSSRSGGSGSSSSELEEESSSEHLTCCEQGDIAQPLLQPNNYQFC
The assay buffer used was 100 mM 4-(2-hydroxyethyl)piperazine 1-ethanesulfonic acid (HEPES), pH 7.5, 1 mM 1,4-dithio-DL-threitol (DTT), 0.01% (v/v) Tween-20. Compounds were diluted in assay buffer containing 4% dimethylsulfoxide (DMSO) just prior to the assay. To each well, 5 μL of compound were added followed by the addition of 3 μL of a mix containing 33 nM c-fms (Johnson & Johnson PRD) and 16.7 mM MgCl2 (Sigma) in assay buffer. The kinase reaction was initiated by adding 2 μL of 5 mM ATP (Sigma) in assay buffer. […] Control reactions were ran in each plate: in positive and negative control wells, assay buffer (made 4% in DMSO) was substituted for the compound; in addition, positive control wells received 1.2 μL of 50 mM ethylenediaminetetraaceticacid (EDTA).
The plates were incubated at room temperature for 45 min. At the end of the incubation, the reaction was quenched with 1.2 μL of 50 mM EDTA (EDTA was not added to the positive control wells at this point; see above). Following a 5-min incubation, each well received 10 μL of a 1:1:3 mixture of anti-phosphotyrosine antibody, 10×, PTK green tracer, 10× (vortexed), FP dilution buffer, respectively (all from PanVera, cat. #P2837). The plate was covered, incubated for 30 min at room temperature and the fluorescence polarization was read on the Analyst. The instrument settings were: 485 nm excitation filter; 530 nm emission filter; Z height: middle of well; G factor: 0.93. […] The reported IC50 values are averages of three independent measurements.

In assay [1] the test system is mouse bone-marrow derived macrophages (BMDM). As to the kind of experiment: CSF-1-driven mouse bone-marrow derived macrophages proliferation assay (BrDU incorporation). It counts as cell-based. The note with it: Mus musculus, BMDM, 30 hrs culture, read-out: mCSF driven proliferation BMDM (Mouse) IC-50. The procedure: CSF-1-Driven Mouse Bone-Marrow Derived Macrophages Assay
Macrophages are derived by culturing mouse bone marrow in alpha-MEM supplemented with 10% FCS and 50 ng/ml recombinant mouse CSF-1 in bacteriologic dishes. On the sixth day, macrophages are detached from dishes, washed, and resuspended to 0.05 million cells/ml in alpha-MEM containing 10% FCS. One hundred ul of cell suspension are distributed per well into 96 well culture plates. Wells are further supplemented with the addition of 50 ul media containing 15 ng/ml CSF-1, 3 uM Indomethacin, and 3× of a dilution series of test compounds. The cells are cultured for 30 hrs at 37 degrees and 5% CO2. During the final six hours, cultures are supplemented with an additional 30 ul of media containing a 1:500 dilution of bromodeoxyuridine (BrDU). At the end of the culture period, the plates are spun at 1000 RPM for 1 minute and 130 ul of media is removed with a pipet and replaced with 150 ul of fixative solution for 1 hour @ room temperature. The fixative is then dispelled from the plates and the plates allowed to air dry. Incorporation of BrDU into the fixed, dried cells is quantified using a specific ELISA.

In the case of `CC1(C)CC=C(c2cc(C3(O)CC(C)(C)N(CC(F)(F)F)C(C)(C)C3)ccc2NC(=O)c2nc(C#N)c[nH]2)CC1` [Example 91, 4-Cyano-1H-imidazole-2-carboxylic acid {2-(4,4-dimethyl-cyclohex-1-enyl)-4-[4-hydroxy-2,2,6,6-tetramethyl-1-(2,2,2-trifluoro-ethyl)-piperidin-4-yl]-phenyl}-amide], the IC50 is approximately 0.21 µM on c-fms and 0.061 µM in assay [1].
Taken in the same sequence, the figures for `CC1(C)CC=C(c2cc(C3(O)CC4CCC(C3)O4)ccc2NC(=O)c2nc(C#N)c[nH]2)CC1` (stereo not shown) [Example 92, 4-Cyano-1H-imidazole-2-carboxylic acid [2-(4,4-dimethyl-cyclohex-1-enyl)-4-(3-hydroxy-8-oxa-bicyclo[3.2.1]oct-3-yl)-phenyl]-amide] were 0.0022 µM and 0.012 µM.
Taken in the same sequence, the figures for `CC1(C)CC=C(c2cc(C3(O)CC4(C)CCC(C)(C3)O4)ccc2NC(=O)c2nc(C#N)c[nH]2)CC1` (stereo not shown) [Example 93, 4-Cyano-1H-imidazole-2-carboxylic acid [2-(4,4-dimethyl-cyclohex-1-enyl)-4-(3-hydroxy-1,5-dimethyl-8-oxa-bicyclo[3.2.1]oct-3-yl)-phenyl]-amide] were 0.0029 µM and 0.0089 µM.
The like results for `CC1(C)CC=C(c2cc(C3(C#N)C[C@]4(C)CC[C@](C)(C3)O4)ccc2NC(=O)c2nc(C#N)c[nH]2)CC1` (stereo partly shown) [Example 94, 4-Cyano-1H-imidazole-2-carboxylic acid [4-(3-cyano-1,5-dimethyl-8-oxa-bicyclo[3.2.1]oct-3-yl)-2-(4,4-dimethyl-cyclohex-1-enyl)-phenyl]-amide] were, in that order, 0.082 µM and more than 0.1 µM.
On to `CC1(C)CC=C(c2cc(C3(C#N)CC(C)(C)OC(C)(C)C3)ccc2NC(=O)c2nc(C#N)c[nH]2)CC1` [Example 95, 4-Cyano-1H-imidazole-2-carboxylic acid [4-(4-cyano-2,2,6,6-tetramethyl-tetrahydro-pyran-4-yl)-2-(4,4-dimethyl-cyclohex-1-enyl)-phenyl]-amide], for which the values for the IC50 (on c-fms; in assay [1]) were 0.026 µM and 0.029 µM, respectively.
